Laboratory results as given in PMC7734590, “Identification of a Selective RelA Inhibitor Based on DSE-FRET Screening Methods” (International Journal of Molecular Sciences, 2020).
Where two headings read alike, the source gives them in different places.

How the values were obtained:
p52 = target: T1, p52 (Homo sapiens, UniProt Q00653); assay: DSE-FRET p52–DNA binding inhibition; format: biochemical; set-up: p52 Retest % Inhibition Run2 / p52 Retest % Inhibition Avg. / Kinetic assay p52 Inhibition % ΔRFU(60 min-0 min) / p52 HTS % Inhibition / p52 Retest % Inhibition Run1: dose or concentration left out as unconfirmed
T1 sequence (Q00653 1-454 limits assumed): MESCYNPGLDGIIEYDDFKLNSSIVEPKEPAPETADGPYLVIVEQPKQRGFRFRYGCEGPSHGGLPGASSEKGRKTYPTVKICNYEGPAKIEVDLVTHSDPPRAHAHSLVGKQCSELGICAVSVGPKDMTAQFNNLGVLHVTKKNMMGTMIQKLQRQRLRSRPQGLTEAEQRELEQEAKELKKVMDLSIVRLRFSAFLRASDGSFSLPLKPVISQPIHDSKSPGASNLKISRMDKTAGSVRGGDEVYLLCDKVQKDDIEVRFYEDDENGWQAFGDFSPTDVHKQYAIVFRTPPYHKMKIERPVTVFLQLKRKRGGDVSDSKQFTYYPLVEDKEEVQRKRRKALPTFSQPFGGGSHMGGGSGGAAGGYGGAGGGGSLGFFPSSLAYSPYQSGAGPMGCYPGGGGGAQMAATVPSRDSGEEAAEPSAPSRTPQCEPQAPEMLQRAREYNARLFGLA

RelA = RelA (Homo sapiens, UniProt Q04206); assay: DSE-FRET RelA–DNA binding inhibition; format: biochemical; set-up: Kinetic assay RelA Inhibition % ΔRFU(60 min-0 min) / RelA HTS % Inhibition / RelA Retest % Inhibition Run1 / RelA Retest % Inhibition Run2 / RelA Retest % Inhibition Avg. / Kinetic assay RelA % Inhibition ΔRFU(60 min-0 min): dose or concentration left out as unconfirmed
[1] = Retest average of Run1 and Run2
[2] = retest of known drugs, 1 = judged hit
[3] = HTS, known drugs, 10 µM, read-out: p52 HTS % Inhibition @ 10 µM
[4] = kinetic assay, 60 min-0 min, 10 µM, read-out: Kinetic assay @ 10 µM p52 % Inhibition ΔRFU(60 min-0 min)
[5] = retest, Run1, 10 µM, read-out: p52 Retest % Inhibition @ 10 µM Run1
[6] = retest, Run2, 10 µM, read-out: p52 Retest % Inhibition @ 10 µM Run2
[7] = retest, average of Run1 and Run2, 10 µM, read-out: p52 Retest % Inhibition @ 10 µM Avg.
[8] = HTS, known drugs, 10 µM, read-out: RelA HTS % Inhibition @ 10 µM
[9] = kinetic assay, 60 min-0 min, 10 µM, read-out: Kinetic assay @ 10 µM RelA % Inhibition ΔRFU(60 min-0 min)
[10] = retest, Run1, 10 µM, read-out: RelA Retest % Inhibition @ 10 µM Run1
[11] = retest, Run2, 10 µM, read-out: RelA Retest % Inhibition @ 10 µM Run2
[12] = retest, average of Run1 and Run2, 10 µM, read-out: RelA Retest % Inhibition @ 10 µM Avg.

Chain of RelA (Q04206 19-306 limits assumed): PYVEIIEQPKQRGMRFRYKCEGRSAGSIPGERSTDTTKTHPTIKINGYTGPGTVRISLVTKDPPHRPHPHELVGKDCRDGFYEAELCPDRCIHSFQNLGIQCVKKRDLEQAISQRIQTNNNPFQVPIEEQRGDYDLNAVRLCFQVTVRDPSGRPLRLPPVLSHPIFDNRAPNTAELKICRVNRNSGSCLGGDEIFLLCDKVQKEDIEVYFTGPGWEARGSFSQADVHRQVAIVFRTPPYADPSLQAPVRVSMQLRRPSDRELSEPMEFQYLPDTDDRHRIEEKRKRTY

`O=C1C=CC(=C(c2ccc(O)c(O)c2)c2ccccc2S(=O)(=O)O)C=C1O` (mixture of isomers) [Pyrocatechol violet] was tested, and the “Hit Judgement of: p52” value (p52; 1 = judged hit after retest) was 1, the inhibition at 5 µg/mL (p52; HTS, 5 µg/mL, NPDepo hits, read-out: p52 HTS % Inhibition @ 5 µg/mL) was 4.4% and the inhibition at 5 µg/mL (p52; Retest Run1, 5 µg/mL, read-out: p52 Retest % Inhibition @ 5 µg/mL Run1) was 14.9%. For the same compound, the inhibition at 5 µg/mL (p52; Retest Run2, 5 µg/mL, read-out: p52 Retest % Inhibition @ 5 µg/mL Run2) was 16.2%, the inhibition at 5 µg/mL (p52; Retest average of Run1 and Run2, 5 µg/mL, read-out: p52 Retest % Inhibition @ 5 µg/mL Avg.) was 15.6% and the inhibition at 5 µg/mL (p52; kinetic assay, 5 µg/mL, ΔRFU 60 min-0 min, read-out: Kinetic assay @ 5 µg/mL p52 Inhibition % ΔRFU(60 min-0 min)) was 6%. For the same compound, the “Hit Judgement of: RelA” value (RelA; 1 = judged hit after retest) was 1, the inhibition at 5 µg/mL (RelA; HTS, 5 µg/mL, NPDepo hits, read-out: RelA HTS % Inhibition @ 5 µg/mL) was 52.5% and the inhibition at 5 µg/mL (RelA; Retest Run1, 5 µg/mL, read-out: RelA Retest % Inhibition @ 5 µg/mL Run1) was 43.2%. The inhibition at 5 µg/mL (RelA; Retest Run2, 5 µg/mL, read-out: RelA Retest % Inhibition @ 5 µg/mL Run2) was 47.5%, the inhibition at 5 µg/mL (RelA; Retest average of Run1 and Run2, 5 µg/mL, read-out: RelA Retest % Inhibition @ 5 µg/mL Avg.) was 45.3% and the inhibition at 5 µg/mL (RelA; kinetic assay, 5 µg/mL, ΔRFU 60 min-0 min, read-out: Kinetic assay @ 5 µg/mL RelA Inhibition % ΔRFU(60 min-0 min)) was 15%.
`O=C1NC(=O)c2c1c1c3ccccc3[nH]c1c1[nH]c3ccccc3c21` [Arcyriaflavin A] was tested, and the “Kinetic assay p52 % Inhibition ΔRFU(60 min-0 min)” value (p52; kinetic assay, 60 min-0 min) was -3.54% and the “Kinetic assay RelA % Inhibition ΔRFU(60 min-0 min)” value (RelA; kinetic assay, 60 min-0 min) was -3.51%.
In the case of `CC1(C)C(=O)N=C2C1=C(O)C(=O)c1ccccc12` [BVT 948], the “p52 HTS % Inhibition” value (p52; HTS, known drugs) is reported as 38.2%, the “p52 Retest % Inhibition Run1” value (p52; Retest Run1) is reported as 22.0% and the “p52 Retest % Inhibition Run2” value (p52; Retest Run2) is reported as 33.7%. The “p52 Retest % Inhibition Avg.” value (p52; [1]) was 27.8%, the “Kinetic assay p52 % Inhibition ΔRFU(60 min-0 min)” value (p52; kinetic assay, 60 min-0 min) was 7% and the “Hit Judgement of: p52” value (p52; [2]) was 1. The “RelA HTS % Inhibition” value (RelA; HTS, known drugs) was 34.4%, the “RelA Retest % Inhibition Run1” value (RelA; Retest Run1) was 48.4% and the “RelA Retest % Inhibition Run2” value (RelA; Retest Run2) was 67.6%. For the same compound, the “RelA Retest % Inhibition Avg.” value (RelA; [1]) was 58.0%, the “Kinetic assay RelA % Inhibition ΔRFU(60 min-0 min)” value (RelA; kinetic assay, 60 min-0 min) was 21% and the “Hit Judgement of: RelA” value (RelA; [2]) was 1.
For `CC(C)(O/N=C(\C(=O)N[C@@H]1C(=O)N2C(C(=O)[O-])=C(C[n+]3ccccc3)CS[C@H]12)c1csc(N)n1)C(=O)O` [CEFTAZIDIME], the inhibition at 10 µM (p52; [3]) was 98%, the inhibition at 10 µM (p52; [4]) was 92% and the “Hit Judgement of: p52” value (p52; [2]) was 1. It also gave an inhibition at 10 µM (p52; [5]) of 78.9%, an inhibition at 10 µM (p52; [6]) of 110% and an inhibition at 10 µM (p52; [7]) of 94.2%. For the same compound, the inhibition at 10 µM (RelA; [8]) was 96.9%, the inhibition at 10 µM (RelA; [9]) was 94% and the “Hit Judgement of: RelA” value (RelA; [2]) was 1. The inhibition at 10 µM (RelA; [10]) was 91.9%, the inhibition at 10 µM (RelA; [11]) was 106% and the inhibition at 10 µM (RelA; [12]) was 98.9%.
`CC(C)(CO)[C@@H](O)C(=O)NCCCO` [DEXPANTHENOL] was tested, and the inhibition at 10 µM (p52; [3]) was 241%, the inhibition at 10 µM (p52; [4]) was -1.23% and the inhibition at 10 µM (p52; [5]) was 207%. The inhibition at 10 µM (p52; [6]) was 231%, the inhibition at 10 µM (p52; [7]) was 219% and the inhibition at 10 µM (RelA; [8]) was 242%. The inhibition at 10 µM (RelA; [9]) was -4.64%, the inhibition at 10 µM (RelA; [10]) was 226% and the inhibition at 10 µM (RelA; [11]) was 246%. For the same compound, the inhibition at 10 µM (RelA; [12]) was 236%.
`CC(=O)Oc1cccc2c1C(=O)c1c(OC(C)=O)cc(C(=O)O)cc1C2=O` [DIACERIN] was tested, and the “Kinetic assay p52 % Inhibition ΔRFU(60 min-0 min)” value (p52; kinetic assay, 60 min-0 min) was 2.21% and the “Kinetic assay RelA % Inhibition ΔRFU(60 min-0 min)” value (RelA; kinetic assay, 60 min-0 min) was 3%.
`OCCN(CCO)c1nc(N2CCCCC2)c2nc(N(CCO)CCO)nc(N3CCCCC3)c2n1` [DIPYRIDAMOLE] was tested, and the “Kinetic assay p52 % Inhibition ΔRFU(60 min-0 min)” value (p52; kinetic assay, 60 min-0 min) was -1.17% and the “Kinetic assay RelA % Inhibition ΔRFU(60 min-0 min)” value (RelA; kinetic assay, 60 min-0 min) was -1.49%.
`COc1cccc2c1C(=O)c1c(O)c3c(c(O)c1C2=O)C[C@@](O)(C(=O)CO)C[C@@H]3O[C@H]1C[C@H](N)[C@H](O)[C@H](C)O1` [DOXORUBICIN] was tested, and the “Kinetic assay p52 % Inhibition ΔRFU(60 min-0 min)” value (p52; kinetic assay, 60 min-0 min) was -16% and the “Kinetic assay RelA % Inhibition ΔRFU(60 min-0 min)” value (RelA; kinetic assay, 60 min-0 min) was -14%.
For `CC(=O)Oc1cccc2c1C(=O)c1c(OC(C)=O)cc(C(=O)O)cc1C2=O` [Diacerein], the inhibition at 10 µM (p52; [3]) was 72.2%, the inhibition at 10 µM (p52; [4]) was 3% and the inhibition at 10 µM (p52; [5]) was 46.8%. The inhibition at 10 µM (p52; [6]) was 54%, the inhibition at 10 µM (p52; [7]) was 50.4% and the inhibition at 10 µM (RelA; [8]) was 97.4%. It also gave an inhibition at 10 µM (RelA; [9]) of 4%, an inhibition at 10 µM (RelA; [10]) of 51.6% and an inhibition at 10 µM (RelA; [11]) of 57.2%. It also gave an inhibition at 10 µM (RelA; [12]) of 54.4%.
